A short description of data set [1]: Acute toxicity in mice, intraperitoneal. In kind it is in vivo. To be noted: IP.
For data set [2], the target named is T1, acetylcholinesterase (Electrophorus electricus, UniProt O42275).
T1 construct: tested for anticholinesterase acitivity in chicken brain homogenate and electric eel extract; from tissue
The data set is described as follows: Acetylcholinesterase activity inhibition assay, electric eel extract. In kind it is biochemical. The following applies: at 10⁻⁵ M. How it is done:
(§1) The AZT prodrug was evaluated for anticholinesterase activity at the Laboratory of Neurotoxicology and Pharmacology at Duke University using a standard well established acetylcholinesterase activity inhibition assay. Elleman et. al.; Biochemical Pharmacology; 7:88 (1962) The prodrug was tested for anticholinesterase acitivity in chicken brain homogenate and electric eel extract.

In data set [3] the target is T2, acetylcholinesterase (Gallus gallus, UniProt P36196).
T2 construct: tested for anticholinesterase acitivity in chicken brain homogenate and electric eel extract; from tissue; host or cells: chicken brain homogenate
T2 sequence (P36196 20-767): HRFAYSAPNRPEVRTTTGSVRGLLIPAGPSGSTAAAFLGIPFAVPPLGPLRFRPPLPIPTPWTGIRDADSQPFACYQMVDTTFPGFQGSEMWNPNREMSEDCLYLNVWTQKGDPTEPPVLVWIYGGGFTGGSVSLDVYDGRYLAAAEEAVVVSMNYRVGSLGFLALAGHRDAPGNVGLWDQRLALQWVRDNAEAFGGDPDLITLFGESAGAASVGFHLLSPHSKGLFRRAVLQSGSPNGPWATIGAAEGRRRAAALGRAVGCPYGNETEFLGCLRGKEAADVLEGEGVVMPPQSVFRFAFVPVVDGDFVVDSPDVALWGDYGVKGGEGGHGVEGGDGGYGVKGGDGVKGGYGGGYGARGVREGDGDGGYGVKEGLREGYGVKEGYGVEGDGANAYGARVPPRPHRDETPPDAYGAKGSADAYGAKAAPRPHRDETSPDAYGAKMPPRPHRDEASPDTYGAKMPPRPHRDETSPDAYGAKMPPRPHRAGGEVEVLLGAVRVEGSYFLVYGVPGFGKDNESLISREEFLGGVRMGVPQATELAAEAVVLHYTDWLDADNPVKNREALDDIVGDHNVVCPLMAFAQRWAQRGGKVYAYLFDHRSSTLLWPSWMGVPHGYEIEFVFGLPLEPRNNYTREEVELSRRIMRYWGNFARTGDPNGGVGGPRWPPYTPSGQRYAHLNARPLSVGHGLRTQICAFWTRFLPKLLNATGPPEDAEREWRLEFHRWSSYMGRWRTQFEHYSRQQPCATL
Description: Acetylcholinesterase activity inhibition assay, chicken brain homogenate. In kind it is biochemical. To be noted: at 10⁻⁵ M. Here is the method: as §1

The test system of data set [4] is HIV. The data set is described as follows: Antiviral assay, HIV-induced cytopathic effect in CEM cells (tetrazolium/formazan viability readout). In kind it is cell-based. The following applies: Human immunodeficiency virus 1, CCRF-CEM; for IC90: read-out: IC₉₀. Here is the method:
(§2) The antiviral activity of the AZT prodrug was evaluated in the Retrovirus Research Laboratory at Southern Research Institute. The AZT prodrug (Structure 5) was tested against HIV in CEM cells in a standardized assay system. In this assay the CEM cells were grown in microtitre plates and incubated for 6 day with or without a HIV. The cells were incubated with prodrug or AZT at varying concentrations. After 6 days the percentage of viable cells was measured by employing a standardized assay based upon the conversion of a tetrazolium salt to a formazan chromaphore by viable cells. (T.Mossman; J.Immunol.Methods 65:55 (1983)) The production of the chromaphore was measured spectrophotometrically with a Molecular Devices Vmax plate reader at 570 nm. From the optical density data a computer program calculated the per cent reduction in viral cytopathic effect (CPE), the prodrugs cytotoxic effect, and IC₅₀ values.
The IC₅₀ value; defined as that concentration of drug inhibited the HIV induced CPE 50% was 24 nanamolar for the AZT prodrug. […] When the prodrug was added to the cell cultures 8 hours prior to infecting with HIV the IC₅₀ for the prodrug was 5 nanamolar. The IC9₉₀ for the prodrug was 10 nanamolar. The IC₅₀ for AZT under the same conditions was also 5 nanamolar. The IC₉₀ for AZT was 10 nanamolar. The data is summarized in the graph below for an experiment in which the prodrug or AZT were added 8 hours prior to the time of infection with the HIV. [formula] The graph below summarizes the results of an experiment in which the antiviral activity of the AZT prodrug was added 8 hours prior to infection or at the time of infection. [formula]
A general note: Cytopathic effects are the visible damage that an infection or toxin causes in cultured cells.

Data set [5] can be described thus: Cytotoxicity in uninfected CEM cells (tetrazolium/formazan viability readout). In kind it is cell-based. The following applies: human, 6 days, read-out: TC₅₀ (concentration that resulted in a 50% reduction of cell viability in uninfected cells). How it is done: as §2
The IC₅₀ value; defined as that concentration of drug inhibited the HIV induced CPE 50% was 24 nanamolar for the AZT prodrug. […] When the prodrug was added to the cell cultures 8 hours prior to infecting with HIV the IC₅₀ for the prodrug was 5 nanamolar. The IC9₉₀ for the prodrug was 10 nanamolar. The IC₅₀ for AZT under the same conditions was also 5 nanamolar. The IC₉₀ for AZT was 10 nanamolar. […]

For data set [6], the target named is HIV reverse transcriptase (Human immunodeficiency virus type 1 group M subtype B, UniProt P04585). To be noted: read-out: concentration at which HIV reverse transcriptase is inhibited by 50%; cited from earlier work.
For data set [7] the following is noted: cited from earlier work.
[8] abbreviates: added 8 hours prior to infecting with HIV, read-out: IC₅₀.
[9] abbreviates: added 8 hours prior to infecting with HIV.

We go through four compounds from EP0533833B1, “PHOSPHOROUS PRODUGS” (priority 1990, dated 1991).

Structures are written as SMILES. Like-named read-outs stand apart in the source and are kept apart here. Bounds are passed on as bounds.

T1 sequence (O42275 24-633): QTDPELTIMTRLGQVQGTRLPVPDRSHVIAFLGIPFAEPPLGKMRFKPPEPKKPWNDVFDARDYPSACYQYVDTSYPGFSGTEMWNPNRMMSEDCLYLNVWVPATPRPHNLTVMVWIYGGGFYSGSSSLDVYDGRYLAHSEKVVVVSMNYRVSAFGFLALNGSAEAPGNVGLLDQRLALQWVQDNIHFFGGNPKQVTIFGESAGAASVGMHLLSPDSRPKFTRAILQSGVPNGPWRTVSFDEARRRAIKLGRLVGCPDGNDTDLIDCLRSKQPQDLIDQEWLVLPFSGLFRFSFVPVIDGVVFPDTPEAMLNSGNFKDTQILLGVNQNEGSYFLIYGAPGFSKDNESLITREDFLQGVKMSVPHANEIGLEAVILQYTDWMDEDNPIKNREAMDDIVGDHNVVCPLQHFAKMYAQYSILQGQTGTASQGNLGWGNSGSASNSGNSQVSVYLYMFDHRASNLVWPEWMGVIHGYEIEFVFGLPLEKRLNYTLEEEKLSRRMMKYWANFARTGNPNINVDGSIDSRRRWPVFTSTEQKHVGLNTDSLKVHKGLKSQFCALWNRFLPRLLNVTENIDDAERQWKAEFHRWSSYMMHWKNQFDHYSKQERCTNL

For `CCOC(=O)CC(OP(=O)(OC[C@H]1O[C@@H](n2cc(C)c(=O)[nH]c2=O)C[C@@H]1N=[N+]=[N-])OC(CC(=O)OCC)c1ccc(OC(C)=O)cc1)c1ccc(OC(C)=O)cc1` (stereo partly drawn) [AZT prodrug], the acute toxicity entry was “no acute toxicity” in data set [1] (mice, 100 mg/kg as an emulsion in 5% Emulphor EL 620) and “without evident acute toxicity” in data set [1] (one mouse, 300 mg/kg, 24 hour period of observation). Besides, the “inhibition of acetylcholinesterase activity” value in data set [2] and in data set [3] was “No inhibition” throughout. The IC50 in data set [4] (144 h, 6 days, drug not added before infection, read-out: IC₅₀ (concentration that inhibited the HIV induced CPE 50%)) came to 24 nM; in data set [4] (setting [8]), 5 nM. Further, in data set [4] (setting [9]), the IC90 amounted to 10 nM. For the same compound, the CC50 at 144 h in data set [5] stood at 7800 nM.

Take `Cc1cn([C@H]2C[C@H](N=[N+]=[N-])[C@@H](CO)O2)c(=O)[nH]c1=O` [AZT, 3'azido-3'deoxythymidine, reference compound]: the IC50 in data set [4] (setting [8]) was determined as 5 nM. For the same compound, the IC90 in data set [4] (setting [9]) is 10 nM.

For `O=C(O)P(=O)(O)O` [Phosphonoformate], the IC50 in data set [6] was less than 2000 nM.

Consider `COc1cc(C=CC(C)=O)ccc1O` [methyl 4-hydroxy,3-methoxy-styryl ketone], for which, in data set [7], the “oral LD₅₀” value was more than 2 grams/kg.
